{"source": "paper PMC11064505", "about": "“A nanochitosan-D-galactose formulation increases the accumulation of primaquine in the liver” (Antimicrobial Agents and Chemotherapy, 2024)", "key": {"in vivo": {"experiment": "in vivo", "details": "mouse", "protocol": "All formulations were given by gavage with a final volume of 200 µL. At different intervals (0.5, 1, 2, 4, 8, and 24 hours), animals were subjected to anesthesia with a mixture of xylazine (10 mg/kg) and ketamine (100 mg/kg). Blood was collected by cardiac puncture, plasma was separated by centrifugation, RBCs were washed three times in saline, and plasma and RBC were stored at −20°C. After the animal was exsanguinated, the liver, lungs, and spleen were collected and frozen in liquid nitrogen until processed for primaquine quantification.\nThe extraction procedure was based on Carmo et al. ([22]) and Joshi and Devarajan ([23]). Briefly, 100 µL or 100 mg of the sample was transferred to a 1.5 mL microtube. Then, 100 µL of 2% acetic acid-acidified acetonitrile and 100 µL of ultrapure water were added. Next, the samples were homogenized for 1 minute using a vortex, and 50 µL of 12.5% zinc sulfate solution was added. The samples were homogenized again for 1 minute and left to stand for 20 minutes to ensure complete protein precipitation. After this period, the samples were centrifuged at 7,500 rpm for 15 minutes at room temperature. Finally, the supernatant was collected, and 20 µL was injected into the liquid chromatograph. This process was repeated to construct the eight-point calibration curves (0.39–50 µg/mL).\nThe primaquine concentrations in plasma, liver, lung, and spleen samples from mice treated with free primaquine were determined using high-performance liquid chromatography with a UV detector (HPLC-UV). Method validation followed orientations of the Guidance for Bioanalytical Method Validation from the Food and Drug Administration. The method was developed using a Waters liquid chromatography system with an Alliance e2695 Separation Module, quaternary pump, autosampler, degasser, column heater, and a dual channel UV–Vis detector (Milford, USA). The Empower 3 software was used for system control, peak integration, and data analysis. The separation was performed using an XBridge C18 reverse-phase column (150 × 4.6 mm, 5 µm) and an XBridge C18 reverse-phase pre-column (20 × 4.6 mm, 5 µm). For elution and identification of the primaquine, the mobile phase (MP) consisted of (A) potassium phosphate buffer (0.02 mol/L, pH = 3) and (Bi) acetonitrile. […] The flow rate of the MP was set at 1.0 mL/min, the column oven temperature was maintained at 35°C, and the UV detector was set at 266 nm. An injection volume of 20 µL was used, and the total run time was 13 minutes.\nThe physicochemical analyses of the nanoparticles were performed in triplicate and are expressed as the mean value ± SD. Statistical significance tests were applied through mixed-model analysis of variance, using Prism GraphPad Software. […] Non-compartmental pharmacokinetic analysis was conducted using PK Solutions 2.0 (Summit Research Services, Ashland, USA). The area under the concentration-time curve was calculated using the trapezoidal method (AUC0-t) from time zero to the last data point and extrapolated to infinity (AUC0-∞). The maximum plasma concentration (Cmax) and the time taken to reach Cmax (Tmax) were obtained from the experimental data. The elimination rate constant (K) was determined from the slope of the regression line, allowing the calculation of the elimination half-life (t1/2β) using the formula 0.693 /K ([24]). All data were presented as mean ± SD."}, "[1]": {"parameters": "method as in PMID 16968913, PMID 30379233, PMID 35709685", "details": "human treatment, clinical dose; cited from earlier work"}, "[2]": {"parameters": "method as in PMID 16140485", "details": "1 hour after intravenous administration in mice; cited from earlier work"}}, "data": [{"compound": "COc1cc(NC(C)CCCN)c2ncccc2c1", "note": "(stereo not shown) [Pq, primaquine diphosphate]", "values": [{"measurement": "Tmax", "setting": "in vivo; Swiss Webster, po, 10 mg/kg", "value": 30, "unit": "min"}, {"measurement": "liver/plasma ratio for the volume of distribution", "setting": "in vivo; Swiss Webster, po, 10 mg/kg", "value": 0.1}, {"measurement": "primaquine concentrations in the liver, variation among animals", "setting": "in vivo; Swiss Webster, po, 10 mg/kg, 30 minutes", "value": "3.5-110 µg of drug per 100 mg of tissue"}, {"measurement": "Cmax", "setting": "in vivo; Swiss Webster, po, 10 mg/kg, primaquine concentrations in plasma (Cmax), variation among animals", "value": "400 to 2000", "unit": "ng/mL"}, {"measurement": "Cmax of primaquine in the liver relative to the galactose-based nanoformulations", "setting": "in vivo", "value": "about twice as much"}, {"measurement": "Cmax in plasma", "setting": "[1]", "value": "around 0.1 µg/mL"}, {"measurement": "uptake of the drug (recovery) in the liver", "setting": "[2]", "value": 20, "unit": "%"}]}]}
